For this data set the following is noted: for aqueous solubility: pH 6.8.

Molecules are shown by their SMILES. Values after ≈ are worked out from the molar mass of the structure shown.

On to `CN(C)C(=O)C1(Cc2ccccc2-c2ccccc2)CCN(C(=O)c2cnn(C)c2)CC1`, for which the MDR1-MDCK efflux ratio amounted to 25.1; the fraction unbound, human plasma is 0.11; the fraction unbound, rat plasma is 0.14; the intrinsic clearance, human liver microsomes came out at 464 mL/min/kg. The intrinsic clearance, rat liver microsomes was found to be 1250 mL/min/kg.

Take `COc1cc(OC)c2c(=O)cc(CCC(=O)O)oc2c1`: the intrinsic clearance, human liver microsomes is at most 4.74 mL/min/kg and the intrinsic clearance, rat liver microsomes was at most 10.7 mL/min/kg.

By aqueous solubility is commonly meant how much of the substance goes into solution per volume. A low value points to little dissolved substance. As for `O=C(O)c1ccc(COc2ccc(/C=C3\SC(=O)N(Cc4ccc(F)cc4)C3=O)cc2)cc1`, the aqueous solubility was determined as 0.99 µg/mL (≈ 2.14 µM).

For the compound `Nc1cnn(CC(=O)Nc2ccc(F)cc2)c1`, the intrinsic clearance, human liver microsomes was 16.1 mL/min/kg; the intrinsic clearance, rat liver microsomes stood at 62.4 mL/min/kg; the aqueous solubility stood at 54 µg/mL (≈ 231 µM).

Take `OCCN1CCN(c2ccnc3ccc(Br)cc23)CC1`: the MDR1-MDCK efflux ratio is 1.74; the intrinsic clearance, human liver microsomes is 12.5 mL/min/kg; the intrinsic clearance, rat liver microsomes is 114 mL/min/kg.

Take `CC1CCN(C(=O)CCn2ccc3ccncc32)CC1`: the MDR1-MDCK efflux ratio was 1.98; the intrinsic clearance, human liver microsomes is 119 mL/min/kg; the intrinsic clearance, rat liver microsomes stood at 1960 mL/min/kg.

As to `Cn1ccnc1COc1ccc(CO)cc1`, the aqueous solubility came to 57.4 µg/mL (≈ 263 µM).

Regarding `N#Cc1c(O)nc(SCc2cccc(F)c2F)nc1C1CC1`, the MDR1-MDCK efflux ratio turned out to be 0.817 and the aqueous solubility was determined as 2.1 µg/mL (≈ 6.58 µM).

Regarding `O=c1c2sccc2nc2n1CCN(Cc1ccc(F)cc1F)CC2`, the MDR1-MDCK efflux ratio was 0.519; the intrinsic clearance, human liver microsomes came to 57.9 mL/min/kg; the intrinsic clearance, rat liver microsomes turned out to be 1460 mL/min/kg.

Turning to `COc1ccc(OC)c(-c2cc(C(=O)N3CCCN(C(C)=O)CC3)no2)c1`, the MDR1-MDCK efflux ratio was found to be 4.72; the intrinsic clearance, human liver microsomes was found to be 12.9 mL/min/kg; the intrinsic clearance, rat liver microsomes came out at 214 mL/min/kg; the aqueous solubility stood at 59.7 µg/mL (≈ 160 µM).

As for `CN(Cc1ccccc1N1CCCC1)C(=O)c1cccc(Cn2ccnc2)c1`, the MDR1-MDCK efflux ratio amounted to 21.7; the intrinsic clearance, human liver microsomes was found to be 392 mL/min/kg; the intrinsic clearance, rat liver microsomes was 1520 mL/min/kg; the aqueous solubility came to 61.6 µg/mL (≈ 164 µM).

`Cc1nonc1C(=O)Nc1cccnc1N(C)C`: the intrinsic clearance, human liver microsomes was 16.6 mL/min/kg and the intrinsic clearance, rat liver microsomes was determined as 173 mL/min/kg.

As for `Cc1cnn(Cc2nnc(-c3ccccc3)s2)c1`, the MDR1-MDCK efflux ratio turned out to be 0.554; the intrinsic clearance, human liver microsomes stood at 44 mL/min/kg; the intrinsic clearance, rat liver microsomes stood at 449 mL/min/kg; the aqueous solubility is 22.5 µg/mL (≈ 87.8 µM).

On to `CN(Cc1nnc(C2CC2)n1C)C(=O)C1C2CC3CC(C2)CC1C3` (stereo unspecified), for which the MDR1-MDCK efflux ratio was determined as 11.1; the intrinsic clearance, human liver microsomes worked out at 47.8 mL/min/kg; the intrinsic clearance, rat liver microsomes came to 951 mL/min/kg; the aqueous solubility stood at 46.4 µg/mL (≈ 141 µM).

As to `COc1cc2nc(-c3ccc(N4CCN(C)CC4)cc3)nc(NCCN3CCOCC3)c2cc1OC`, the intrinsic clearance, human liver microsomes was determined as 8.7 mL/min/kg and the intrinsic clearance, rat liver microsomes turned out to be 90.9 mL/min/kg.

On to `O=c1c2ccncc2ncn1[C@H]1CCN(Cc2ccccc2)C1`, for which the MDR1-MDCK efflux ratio turned out to be 0.442; the intrinsic clearance, human liver microsomes is 22.6 mL/min/kg; the intrinsic clearance, rat liver microsomes is 796 mL/min/kg.

With `O=C(NCc1ccccc1)c1ccc(NS(=O)(=O)c2ccc(C3CCCCC3)cc2)cc1`, the MDR1-MDCK efflux ratio amounted to 2.69; the intrinsic clearance, human liver microsomes amounted to 81 mL/min/kg; the intrinsic clearance, rat liver microsomes turned out to be 402 mL/min/kg; the aqueous solubility worked out at 1.57 µg/mL (≈ 3.5 µM).

As for `CCc1cnc(CN2C(=O)NC3(CCC3)C2=O)o1`, the MDR1-MDCK efflux ratio worked out at 3.63; the intrinsic clearance, human liver microsomes was at most 4.74 mL/min/kg; the intrinsic clearance, rat liver microsomes stood at 51.9 mL/min/kg; the aqueous solubility is 32.4 µg/mL (≈ 130 µM).

`CN1C(=O)COc2cc(NC(=O)C3CC=CC3)ccc21` yielded an intrinsic clearance, human liver microsomes of at most 4.74 mL/min/kg and an intrinsic clearance, rat liver microsomes of 92.7 mL/min/kg.

In the case of `O=C(NC[C@]1(O)CCN(Cc2ccsc2)C[C@H]1O)c1c[nH]cn1`, the MDR1-MDCK efflux ratio worked out at 0.366; the intrinsic clearance, human liver microsomes is at most 4.74 mL/min/kg; the intrinsic clearance, rat liver microsomes is at most 10.7 mL/min/kg.

Consider `Cc1ccc(C(=O)N(C)Cc2c(C)noc2C)cn1`, for which the MDR1-MDCK efflux ratio was 1.35; the intrinsic clearance, human liver microsomes was at most 4.74 mL/min/kg; the intrinsic clearance, rat liver microsomes is at most 10.7 mL/min/kg; the aqueous solubility stood at 40.8 µg/mL (≈ 157 µM).

The compound `O=C(c1cccs1)N1CCCC(C(=O)N2Cc3ccccc3C(c3ccccc3)C2)C1` (stereo unspecified) came in with an intrinsic clearance, human liver microsomes of 767 mL/min/kg; an intrinsic clearance, rat liver microsomes of 4910 mL/min/kg; an aqueous solubility of 24.7 µg/mL (≈ 57.4 µM).

On to `COc1ccc(C2(NCc3cccc4ncccc34)CC2)cc1`, for which the MDR1-MDCK efflux ratio worked out at 0.483; the intrinsic clearance, human liver microsomes stood at 261 mL/min/kg; the intrinsic clearance, rat liver microsomes was 1340 mL/min/kg; the aqueous solubility amounted to 55.5 µg/mL (≈ 182 µM).

Regarding `C=C(C)COc1cccc(C(=O)NCc2nncn2C2CCCCC2)c1`, the MDR1-MDCK efflux ratio is 16.9; the intrinsic clearance, human liver microsomes came out at 158 mL/min/kg; the intrinsic clearance, rat liver microsomes amounted to 2090 mL/min/kg; the aqueous solubility stood at 26.9 µg/mL (≈ 75.9 µM).

On to `CCNC(=O)c1ccnc(-c2ccc(F)c(C)c2)c1`, for which the intrinsic clearance, human liver microsomes is 123 mL/min/kg; the intrinsic clearance, rat liver microsomes was 1070 mL/min/kg; the aqueous solubility was 28.4 µg/mL (≈ 110 µM).

In the case of `Cc1nc2cc(NC(=O)Cc3c(C)nc4ccccc4c3C)ccc2o1`, the MDR1-MDCK efflux ratio stood at 4.57; the intrinsic clearance, human liver microsomes was 8.56 mL/min/kg; the intrinsic clearance, rat liver microsomes is 254 mL/min/kg; the aqueous solubility was determined as 23.1 µg/mL (≈ 66.9 µM).

For the compound `COc1ccc(CNC(=O)c2cc(-c3cncc(C)c3)ncc2-c2nccs2)nc1OC`, the MDR1-MDCK efflux ratio is 9.82; the intrinsic clearance, human liver microsomes is 17.7 mL/min/kg; the intrinsic clearance, rat liver microsomes amounted to 125 mL/min/kg; the aqueous solubility was 9.86 µg/mL (≈ 22 µM).

`N#CCNC(=O)c1ccc(C#N)c(Cl)c1` had an intrinsic clearance, human liver microsomes of at most 4.74 mL/min/kg and an intrinsic clearance, rat liver microsomes of at most 10.7 mL/min/kg.

With `CCc1ccccc1-c1cn(CCc2cnccn2)nn1`, the MDR1-MDCK efflux ratio turned out to be 0.783; the intrinsic clearance, human liver microsomes came out at 24.7 mL/min/kg; the intrinsic clearance, rat liver microsomes was found to be 290 mL/min/kg; the aqueous solubility came out at 27.6 µg/mL (≈ 99 µM).

Turning to `Cc1c(C(=O)NC2CCN(CC3CCCCC3)CC2)cnn1C`, the MDR1-MDCK efflux ratio was 6.82; the intrinsic clearance, human liver microsomes was at most 4.74 mL/min/kg; the intrinsic clearance, rat liver microsomes was at most 10.7 mL/min/kg; the aqueous solubility amounted to 48.9 µg/mL (≈ 154 µM).

As to `Cc1nnsc1CN(C)c1ccc2cc[nH]c2n1`, the MDR1-MDCK efflux ratio is 0.593; the intrinsic clearance, human liver microsomes amounted to 39.3 mL/min/kg; the intrinsic clearance, rat liver microsomes is 342 mL/min/kg; the aqueous solubility is 24.5 µg/mL (≈ 94.5 µM).

With `Cc1cnc(-c2nc(NCc3ccccn3)ncc2-c2onc(C)c2C)cn1`, the MDR1-MDCK efflux ratio was 10.7; the intrinsic clearance, human liver microsomes stood at 116 mL/min/kg; the intrinsic clearance, rat liver microsomes stood at 1040 mL/min/kg; the aqueous solubility was determined as 59 µg/mL (≈ 158 µM).

For `Cc1c(C(=O)Nc2ccc(CO)cc2)nnn1Cc1ccc(Cl)c(Cl)c1`, the MDR1-MDCK efflux ratio was 0.564; the intrinsic clearance, human liver microsomes came to 5.12 mL/min/kg; the intrinsic clearance, rat liver microsomes was found to be 50.8 mL/min/kg.
